Where “and” joins values, the source holds several entries; their conditions need not be identical. Identical values can stand only once. Like-named read-outs stand apart in the source and are kept apart here.

The values below come from article PMC11684029, “Discovery of VU6024578/BI02982816: An mGlu1 Positive Allosteric Modulator with Efficacy in Preclinical Antipsychotic and Cognition Models” (Journal of Medicinal Chemistry, 2024).

For data set [1], the target named is mGlu1 (Mus musculus, UniProt P97772). Description: mGlu1 PAM assay, mouse receptor. In kind it is cell-based. The conditions noted are these: n = 5. On the procedure:
Over the course of the mGlu1 PAM program, 19d became an assay standard and was assayed multiple times, affording refined potency values.[20]

Data set [2] concerns the target 5-HT2B (Homo sapiens, UniProt P41595). Description: Eurofins radioligand binding panel. Also noted: Eurofins. The settings on record: agonist radioligand. From the text:
Table S1. Eurofins Lead Profiling Screen Data
This is a radioligand binding panel of 80 targets including GPCRs, ion channels, transporters and nuclear hormones. Biochemical assay results are presented as the percent inhibition of specific […]
Results showing an inhibition or stimulation higher than 50% are considered to represent significant effect and are highlighted

A short description of data set [3]: brain homogenate binding. In kind it is in vitro ADME, mouse. The conditions noted are these: fraction unbound.
Data set [4] deals with T1, 1A2 (Homo sapiens, UniProt P05177).
T1 construct: 0.1 mg/mL human liver microsomes (HLM) and Substrate Mix; from tissue; host or cells: human liver microsomes
T1 sequence (P05177 whole entry): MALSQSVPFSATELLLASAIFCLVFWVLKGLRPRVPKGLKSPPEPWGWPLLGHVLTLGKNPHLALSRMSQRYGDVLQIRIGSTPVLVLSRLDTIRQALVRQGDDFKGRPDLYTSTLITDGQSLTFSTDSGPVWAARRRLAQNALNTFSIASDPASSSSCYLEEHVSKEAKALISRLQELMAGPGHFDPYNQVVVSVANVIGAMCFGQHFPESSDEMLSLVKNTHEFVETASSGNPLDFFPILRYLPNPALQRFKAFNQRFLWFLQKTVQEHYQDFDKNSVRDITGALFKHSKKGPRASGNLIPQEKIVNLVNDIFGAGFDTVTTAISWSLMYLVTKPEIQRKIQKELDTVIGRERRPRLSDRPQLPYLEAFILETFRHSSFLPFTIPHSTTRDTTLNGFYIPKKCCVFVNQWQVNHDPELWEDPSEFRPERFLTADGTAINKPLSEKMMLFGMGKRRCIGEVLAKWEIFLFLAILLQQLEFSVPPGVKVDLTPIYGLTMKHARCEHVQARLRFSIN
The data set is described as follows: inhibition of cytochrome P450 enzymes. In kind it is in vitro ADME. The conditions noted are these: human liver microsomes; read-out: CYP450 1A2 inhibition. As for the experimental part: (§1) A cocktail of substrates for cytochrome P450 enzymes (1A2: Phenacetin, 10 μM; 2C9: Diclofenac, 5 μM; 2D6: Dextromethorphan, 5 μM; 3A4: Midazolam, 2 μM) were mixed for cocktail analysis. For P450 2C19, the substrate stock (Mephenytoin, 40 μM)and substrate mix were prepared separately for discrete analysis. The positive control for pan-P450 inhibition (miconazole) was included alongside each test compound in analysis.
(§2) A reaction mixture of 100 mM Kpi, pH 7.4, 0.1 mg/mL human liver microsomes (HLM) and Substrate Mix is prepared and aliquoted into a 96-deepwell block. Test compound and positive control (in duplicate) were then added such that the final concentration of test compound ranged from 0.1–30 μM. The plate was vortexed briefly and then preincubated at 37 °C while shaking for 15 min. The reaction was initiated with the addition of NADPH (1 mM final concentration). The incubation continued for 8 min and the reaction quenched by 2x volume of cold acetonitrile containing internal standard (50 nM carbamazepine). The plate was centrifuged for 10 min (4000 rcf, 4 °C) and the resulting supernatant diluted 1:1 with water for LC/MS/MS analysis. A 12 point standard curve of substrate metabolites over the range of 0.98 nM to 2000 nM.
(§3) Samples were analyzed via electrospray ionization (ESI) on an AB Sciex API-4000 (Foster City, CA) triple-quadrupole instrument that was coupled with Shimadzu LC-10AD pumps (Columbia, MD) and a Leap Technologies CTC PAL autosampler (Carrboro, NC). Analytes were separated by gradient elution using a Fortis C18 3.0 × 50 mm, 3 μm column (Fortis Technologies Ltd., Cheshire, UK) thermostated at 40 °C. […]
(§4) The IC50 values for each compound were obtained for the individual CYP enzymes by quantitating the inhibition of metabolite formation for each probe substrate. A 0 μM compound condition (or control) was set to 100% enzymatic activity and the effect of increasing test compound concentrations on enzymatic activity could then be calculated from the % of control activity. […]

Data set [5] has as its target T2, 2C9 (Homo sapiens, UniProt P11712).
T2 construct: 0.1 mg/mL human liver microsomes (HLM) and Substrate Mix; from tissue; host or cells: human liver microsomes
The data set is described as follows: inhibition of cytochrome P450 enzymes. In kind it is in vitro ADME. The conditions noted are these: human liver microsomes; read-out: CYP450 2C9 inhibition. On the procedure:
as §1, §2, §3, §4

The target in data set [6] is T3, 2D6 (Homo sapiens, UniProt P10635).
T3 construct: 0.1 mg/mL human liver microsomes (HLM) and Substrate Mix; from tissue; host or cells: human liver microsomes
T3 sequence (P10635 whole entry): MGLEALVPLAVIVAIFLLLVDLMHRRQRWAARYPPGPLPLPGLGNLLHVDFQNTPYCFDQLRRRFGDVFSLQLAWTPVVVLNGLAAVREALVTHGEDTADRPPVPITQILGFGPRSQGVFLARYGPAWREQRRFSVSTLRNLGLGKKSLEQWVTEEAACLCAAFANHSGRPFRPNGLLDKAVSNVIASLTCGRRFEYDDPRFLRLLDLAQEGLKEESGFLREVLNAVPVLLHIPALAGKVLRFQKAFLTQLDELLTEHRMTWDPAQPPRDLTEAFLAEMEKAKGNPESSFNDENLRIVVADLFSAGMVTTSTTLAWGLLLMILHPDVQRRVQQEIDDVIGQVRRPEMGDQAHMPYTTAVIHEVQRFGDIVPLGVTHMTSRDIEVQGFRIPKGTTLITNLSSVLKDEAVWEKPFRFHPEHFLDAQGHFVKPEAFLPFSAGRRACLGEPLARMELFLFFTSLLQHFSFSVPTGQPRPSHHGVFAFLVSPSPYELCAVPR
The data set is described as follows: inhibition of cytochrome P450 enzymes. The settings on record: human liver microsomes; read-out: CYP450 2D6 inhibition. The class given is in vitro ADME. As for the experimental part: as §1, §2, §3, §4

Data set [7] can be described thus: intrinsic clearance, predicted hepatic clearance. In kind it is in vitro ADME, rat. The settings on record: in vitro predicted hepatic clearance. As for the experimental part:
Human or rat hepatic microsomes (0.5 mg/mL) and 1 μM test compound were incubated in 100 mM potassium phosphate pH 7.4 buffer with 3 mM MgCl2 at 37 °C with constant shaking. After a 5 min preincubation, the reaction was initiated by addition of NADPH (1 mM). At selected time intervals (0, 3, 7, 15, 25, and 45 min), aliquots were taken and subsequently placed into a 96-well plate containing cold acetonitrile with internal standard (50 ng/mL carbamazepine). Plates were then centrifuged at 3000 rcf (4 °C) for 10 min, and the supernatant was transferred to a separate 96-well plate and diluted 1:1 with water for LC/MS/MS analysis. The in vitro half-life (T1/2, min, eq 1), intrinsic clearance (CLint, mL/min/kg, eq 2) and subsequent predicted hepatic clearance (CLhep, mL/min/kg, eq 3) was determined employing the following equations: [drawing 2] 1 where k represents the slope from linear regression analysis of the natural log percent remaining of test compound as a function of incubation time [drawing 3] 2
^ascale-up factors: of 20 (human) or 45 (rat) [drawing 4] 3 where Qh (hepatic blood flow, mL/min/kg) is 21 (human) or 70 (rat).

Data set [8] concerns rats. Description: adverse events in rats. In kind it is in vivo, rat. The settings on record: much higher exposures than in dog.
Data set [9] can be described thus: plasma protein binding. In kind it is in vitro ADME. On the procedure: (§5) The protein binding of each compound was determined in plasma via equilibrium dialysis employing RED Plates (ThermoFisher Scientific, Rochester, NY). Plasma was added to the 96 well plate containing test compound and mixed thoroughly for a final concentration of 5 μM. Subsequently, an aliquot of the plasma-compound mixture was transferred to the cis chamber (red) of the RED plate, with an phosphate buffer (25 mM, pH 7.4) in the trans chamber. The RED plate was sealed and incubated for 4 h at 37 °C with shaking. At completion, aliquots from each chamber were diluted 1:1 with either plasma (cis) or buffer (trans) and transferred to a new 96 well plate, at which time ice-cold acetonitrile containing internal standard (50 ng/mL carbamazepine) (2 volumes) was added to extract the matrices. The plate was centrifuged (3000 rcf, 10 min) and supernatants transferred and diluted 1:1 (supernatant: water) into a new 96 well plate, which was then sealed in preparation for LC/MS/MS analysis. Each compound was assayed in triplicate within the same 96-well plate. Fraction unbound was determined using the following equation [drawing 1]

Data set [10] is described as follows: plasma protein binding, equilibrium dialysis. The class given is in vitro ADME, human. The settings on record: fraction unbound. As for the experimental part:
as §5
For orientation: Equilibrium dialysis compares concentrations on both sides of a semipermeable membrane.

Chain of mGlu1 (P97772 21-1199): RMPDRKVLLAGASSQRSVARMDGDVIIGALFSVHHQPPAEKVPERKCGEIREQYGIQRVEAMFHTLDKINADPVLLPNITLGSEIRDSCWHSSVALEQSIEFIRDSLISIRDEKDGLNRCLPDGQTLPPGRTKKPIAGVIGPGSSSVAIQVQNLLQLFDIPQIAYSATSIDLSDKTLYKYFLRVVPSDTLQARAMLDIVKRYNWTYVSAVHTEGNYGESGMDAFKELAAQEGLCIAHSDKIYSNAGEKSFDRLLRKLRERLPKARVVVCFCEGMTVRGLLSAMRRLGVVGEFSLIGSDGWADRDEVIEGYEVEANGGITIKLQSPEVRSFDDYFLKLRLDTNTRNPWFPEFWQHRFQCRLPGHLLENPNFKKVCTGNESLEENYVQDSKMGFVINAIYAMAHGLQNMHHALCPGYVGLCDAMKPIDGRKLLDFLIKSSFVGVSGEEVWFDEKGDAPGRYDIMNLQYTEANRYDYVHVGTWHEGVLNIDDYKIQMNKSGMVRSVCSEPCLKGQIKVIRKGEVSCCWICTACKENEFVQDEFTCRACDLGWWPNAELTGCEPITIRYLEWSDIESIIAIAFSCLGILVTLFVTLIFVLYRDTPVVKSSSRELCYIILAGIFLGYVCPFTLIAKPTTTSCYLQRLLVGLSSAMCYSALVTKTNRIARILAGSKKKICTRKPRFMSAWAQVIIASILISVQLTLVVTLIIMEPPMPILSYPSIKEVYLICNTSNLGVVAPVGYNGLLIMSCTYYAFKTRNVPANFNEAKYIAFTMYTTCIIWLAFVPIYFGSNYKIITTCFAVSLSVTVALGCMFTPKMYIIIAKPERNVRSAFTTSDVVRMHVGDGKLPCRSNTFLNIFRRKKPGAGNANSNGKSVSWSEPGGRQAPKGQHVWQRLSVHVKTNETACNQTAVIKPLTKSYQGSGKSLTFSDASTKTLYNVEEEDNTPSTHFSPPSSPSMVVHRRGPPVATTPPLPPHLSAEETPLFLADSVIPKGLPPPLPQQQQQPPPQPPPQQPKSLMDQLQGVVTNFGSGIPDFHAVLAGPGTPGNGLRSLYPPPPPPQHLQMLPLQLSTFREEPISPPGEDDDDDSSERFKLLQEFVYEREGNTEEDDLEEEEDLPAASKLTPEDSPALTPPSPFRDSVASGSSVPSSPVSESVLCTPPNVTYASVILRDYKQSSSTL
Chain of 5-HT2B (P41595 whole entry): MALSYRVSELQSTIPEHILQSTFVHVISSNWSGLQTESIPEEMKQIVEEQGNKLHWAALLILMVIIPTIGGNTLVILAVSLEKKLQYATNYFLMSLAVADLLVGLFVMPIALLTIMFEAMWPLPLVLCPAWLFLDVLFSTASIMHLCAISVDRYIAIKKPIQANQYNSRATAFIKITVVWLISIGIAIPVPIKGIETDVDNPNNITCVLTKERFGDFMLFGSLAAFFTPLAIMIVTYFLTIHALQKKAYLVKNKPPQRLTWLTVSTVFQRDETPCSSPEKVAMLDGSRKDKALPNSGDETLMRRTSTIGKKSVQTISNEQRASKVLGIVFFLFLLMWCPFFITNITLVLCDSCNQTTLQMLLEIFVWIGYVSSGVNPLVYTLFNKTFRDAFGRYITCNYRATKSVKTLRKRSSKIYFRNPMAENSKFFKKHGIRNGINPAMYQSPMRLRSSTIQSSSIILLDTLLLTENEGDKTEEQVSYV
T2 sequence (P11712 whole entry): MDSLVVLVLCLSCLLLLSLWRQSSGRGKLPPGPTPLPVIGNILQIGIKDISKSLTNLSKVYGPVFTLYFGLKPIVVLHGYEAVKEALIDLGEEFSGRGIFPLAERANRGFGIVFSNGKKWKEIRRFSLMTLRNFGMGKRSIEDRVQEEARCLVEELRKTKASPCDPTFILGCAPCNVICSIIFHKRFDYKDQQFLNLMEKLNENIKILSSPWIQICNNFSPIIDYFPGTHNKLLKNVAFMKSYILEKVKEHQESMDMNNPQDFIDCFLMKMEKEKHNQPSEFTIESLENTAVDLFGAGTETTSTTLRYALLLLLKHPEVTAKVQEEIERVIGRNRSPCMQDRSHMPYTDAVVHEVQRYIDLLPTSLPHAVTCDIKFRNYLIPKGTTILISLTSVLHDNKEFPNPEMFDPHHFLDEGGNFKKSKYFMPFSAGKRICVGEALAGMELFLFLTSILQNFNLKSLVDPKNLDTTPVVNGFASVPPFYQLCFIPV

As a reminder, the EC50 is the concentration giving half of the maximal effect. A high value points to weaker potency. One may read the inhibition as the percentage by which the read-out fell short of the control. High values mean a strong effect, low ones a weak effect. `Cn1nc(-c2ccnn2C)cc1CNC(=O)c1cc(-c2ccco2)ccc1Cl` [Compound 19d, 2-Chloro-N-((1,2′-dimethyl-1H,2’H-[3,3′-bipyrazol]-5-yl)methyl)-5-(furan-2-yl)benzamide] gave an EC50 in data set [1] of 0.027 µM. The “mouse mGlu1 Glumax” value in [1] is 89%. For the same compound, in data set [1], the “mouse mGlu1 pEC50” value is on record as 7.59 ± 0.07. This compound also came in with an inhibition at 10 µM in data set [2] of 67%. Besides, the “fu (brain), mouse” value in [3] is given as 0.081. The IC50 was 17 µM in data set [4], 6.4 µM in [5] and 28 µM in data set [6]. The “CLhep, rat” value in [7] was 39 mL/min/kg and 39.3 mL/min/kg. Further, the “adverse events (AEs) in rats” value in data set [8] is given as “no AEs”. The fraction unbound at 4 h, 5 μM in [9] (cynomolgus monkey, pH 7.4, read-out: fu (plasma), cyno) turned out to be 0.025; in data set [9] (dog, pH 7.4, read-out: fu (plasma), dog) it was 0.039; in data set [9] (mouse, pH 7.4, read-out: fu (plasma), mouse), 0.056. The compound also came in with a human fuplasma in data set [10] of 0.03.
